A word on the IC50: it is the concentration needed to halve the response being measured. A high value points to a need for much substance.

Data set [1] relates to Staphylococcus aureus. The data set is described as follows: Antibacterial activity against Staphylococcus aureus ATCC 25923 incubated for 16 to 24 hrs by broth microdilution based spectrophotometric analysis. The class given is functional, organism-based.
The subject of data set [2] is Enterococcus faecalis. Briefly: Antibacterial activity against Enterococcus faecalis incubated for 16 to 24 hrs by broth microdilution based spectrophotometric analysis. Format: functional, organism-based. Background: Dilution methods test growth across graded concentrations, often in twofold steps.
The subject of data set [3] is Staphylococcus aureus. The data set is described as follows: Antibacterial activity against methicillin-resistant Staphylococcus aureus ATCC 43300 incubated for 16 to 24 hrs by broth microdilution based spectrophotometric analysis. The class given is functional, organism-based.
Data set [4] relates to Staphylococcus aureus. The data set is described as follows: Antibacterial activity against methicillin-resistant Staphylococcus aureus ATCC 33591 incubated for 16 to 24 hrs by broth microdilution based spectrophotometric analysis. Format: functional, organism-based.
In data set [5] the test system is Enterococcus faecium. Briefly: Antibacterial activity against vancomycin-resistant Enterococcus faecium incubated for 16 to 24 hrs by broth microdilution based spectrophotometric analysis. The class given is functional, organism-based.
The nature of data set [6]: Cytotoxicity against human NCI-H460 cells and measured after 48 hrs by MTT assay. The class given is toxicity, cell-based.
Data set [7] in a line: Cytotoxicity against human SW-620 cells and measured after 48 hrs by MTT assay. Format: toxicity, cell-based. On the technique in general: Formazan colour is commonly taken as a measure of viable cells.
Data set [8] concerns Candida albicans. Briefly: Antifungal activity against Candida albicans ATCC 10231 incubated for 16 to 24 hrs by broth microdilution based spectrophotometric analysis. The class given is functional, organism-based.
Data set [9] concerns Escherichia coli. Briefly: Antibacterial activity against Escherichia coli ATCC 11775 incubated for 16 to 24 hrs by broth microdilution based spectrophotometric analysis. The class given is functional, organism-based.
For data set [10], the system named is Mycobacterium tuberculosis. Briefly: Antibacterial activity against Mycobacterium tuberculosis H37Ra ATCC 25177 incubated for 16 to 24 hrs by broth microdilution based spectrophotometric analysis. Format: functional, organism-based.

As to `CC(=O)O[C@H]1CC[C@H](C)[C@@H]2[C@@H]1C=C(C)[C@H]1/C(C)=C/CC/C(C)=C/[C@@H]3C=C(C(=O)O)[C@H](C)C[C@]34OC(=O)C(=C4O)C(=O)[C@@]21C`, the IC50 in data set [1], in data set [2], in data set [3], in data set [4] and in [5] was more than 30 µM each time.
Regarding `CCCCCCCCCCCC(=O)O[C@H]1CC[C@H](C)[C@@H]2[C@@H]1C=C(C)[C@H]1/C(C)=C/CC/C(C)=C/[C@]3(C)C=C(C)[C@H](C)C[C@]34OC(=O)C(=C4O)C(=O)[C@@]21C`, the IC50 in data set [1], in data set [2], in [3], in data set [4] and in [5] was more than 30 µM throughout.
With `CC1=C[C@H]2[C@@H]([C@@H](C)CC[C@@H]2O)[C@]2(C)C(=O)C3=C(O)[C@@]4(C[C@@H](C)C(C(=O)O)=C[C@H]4/C=C(\C)CC/C=C(\C)[C@H]12)OC3=O`, the IC50 in data set [1], in data set [2], in data set [3], in data set [4] and in data set [5] was more than 30 µM each time.
Regarding `CC1=C[C@H]2[C@@H]([C@@H](C)CC[C@@H]2O[C@@H]2O[C@H](C)[C@@H](O)[C@@H](O)[C@H]2O)[C@]2(C)C(=O)C3=C(O)[C@@]4(C[C@@H](C)C(C(=O)O)=C[C@@]4(C)/C=C(\C)CC/C=C(\C)[C@H]12)OC3=O`, the IC50 in data set [1], in data set [2], in data set [3], in [4] and in data set [5] was more than 30 µM throughout.
Turning to `COc1cc(C)c(C(=O)O[C@H]2[C@@H](O)[C@@H](O)[C@H](O[C@H]3CC[C@H](C)[C@@H]4[C@@H]3C=C(C)[C@H]3/C(C)=C/CC/C(C)=C/[C@]5(C)C=C(C(=O)O)[C@H](C)C[C@]56OC(=O)C(=C6O)C(=O)[C@@]43C)O[C@@H]2C)c(O)c1`, the IC50 at 48 h in [6] and in data set [7] was more than 30 µM throughout. For the same compound, the IC50 in data set [8], in data set [9], in [10], in data set [1], in data set [2] and in [3] was more than 30 µM throughout. Besides, the 50% inhibitory concentration (IC50) in [4] and in data set [5] was more than 30 µM in each case.
In the case of `CC1=C[C@H]2[C@@H]([C@@H](C)CC[C@@H]2O)[C@]2(C)C(=O)C3=C(O)[C@@]4(C[C@@H](C)C(C(=O)O)=C[C@@]4(C)/C=C(\C)CC/C=C(\C)[C@H]12)OC3=O`, the IC50 in [1], in data set [2], in [3], in data set [4] and in data set [5] was more than 30 µM each time.
For the compound `COc1cc(C)c(C(=O)O[C@H]2[C@@H](O)[C@@H](O)[C@H](O[C@H]3CC[C@H](C)[C@@H]4[C@@H]3C=C(C)[C@H]3/C(C)=C/CC/C(C)=C/[C@@H]5C=C(C(=O)O)[C@H](C)C[C@]56OC(=O)C(=C6O)C(=O)[C@@]43C)O[C@@H]2C)c(O)c1`, the IC50 at 48 h in data set [6] and in data set [7] was more than 30 µM each time. For the same compound, the half-maximal inhibitory concentration (IC50) in [8] is more than 30 µM; in data set [9], more than 30 µM; in [10], more than 30 µM; in [1], 15.3 µM; in data set [2], 3.1 µM; in data set [3], 6.3 µM. The IC50 is 8.3 µM in [4] and 5.4 µM in data set [5].
Consider `COc1cc(C)c(C(=O)O[C@H]2[C@@H](O)[C@H](O[C@H]3CC[C@H](C)[C@@H]4[C@@H]3C=C(C)[C@H]3/C(C)=C/CC/C(C)=C/[C@@H]5C=C(C(=O)O)[C@H](C)C[C@]56OC(=O)C(=C6O)C(=O)[C@@]43C)O[C@H](C)[C@H]2O)c(O)c1`, for which the IC50 at 48 h in data set [6] and in data set [7] was more than 30 µM in each case. For the same compound, the IC50 was more than 30 µM in data set [8]; more than 30 µM in data set [9]; more than 30 µM in [10]; 8.4 µM in [1]; 8.9 µM in data set [2]; 7.9 µM in [3]. Moreover, the figures for the IC50 in [4] and in [5] were 5.8 µM and 2.9 µM, respectively.
On to `COc1cc(C)c(C(=O)N[C@@H]2[C@@H](C)O[C@@H](O[C@H]3CC[C@H](C)[C@@H]4[C@@H]3C=C(C)[C@H]3/C(C)=C/CC/C(C)=C/[C@@H]5C=C(C(=O)O)[C@H](C)C[C@]56OC(=O)C(=C6O)C(=O)[C@@]43C)[C@H](O)[C@]2(C)O)c(O)c1`, for which the IC50 at 48 h in [6] and in data set [7] was more than 30 µM throughout. The half-maximal inhibitory concentration (IC50) in [8] is more than 30 µM; in data set [9], more than 30 µM; in data set [10] it was more than 30 µM; in data set [1], 6.4 µM; in data set [2] it was 5.7 µM; in data set [3] it was 4.4 µM. Moreover, the concentration for half-maximal inhibition (IC50) was 1.9 µM in data set [4] and 5.2 µM in data set [5].
On to `COc1cc(C)c(C(=O)O[C@H]2[C@H](O[C@H]3CC[C@H](C)[C@@H]4[C@@H]3C=C(C)[C@H]3/C(C)=C/CC/C(C)=C/[C@@H]5C=C(C(=O)O)[C@H](C)C[C@]56OC(=O)C(=C6O)C(=O)[C@@]43C)O[C@H](C)[C@@H](O)[C@H]2O)c(O)c1`, for which the IC50 at 48 h in data set [6] and in data set [7] was more than 30 µM each time. Further, the IC50 in data set [8] is more than 30 µM; in data set [9], more than 30 µM; in data set [10], more than 30 µM; in [1], 18.4 µM; in [2], 2.7 µM; in [3] it was 16.3 µM. Besides, the IC50 in [4] stood at 8.6 µM; in data set [5], 2.9 µM.
Consider `COc1cc(C)c(C(=O)O[C@H]2[C@H](O[C@H]3CC[C@H](C)[C@@H]4[C@@H]3C=C(C)[C@H]3/C(C)=C/CC/C(C)=C/[C@]5(C)C=C(C(=O)O)[C@H](C)C[C@]56OC(=O)C(=C6O)C(=O)[C@@]43C)O[C@H](C)[C@@H](O)[C@H]2O)c(O)c1`, for which the IC50 at 48 h in data set [6] and in [7] was more than 30 µM in each case. The IC50 in [8] was more than 30 µM; in data set [9], more than 30 µM; in data set [10], more than 30 µM; in data set [1], 10 µM; in data set [2] it was 13 µM; in data set [3], 15.2 µM. For the same compound, the results for the IC50 in data set [4] and in data set [5] were 10.2 µM and 7.3 µM, respectively.
In the case of `CC(=O)O[C@H]1CC[C@H](C)[C@@H]2[C@@H]1C=C(C)[C@H]1/C(C)=C/CC/C(C)=C/[C@]3(C)C=C(C(=O)O)[C@H](C)C[C@]34OC(=O)C(=C4O)C(=O)[C@@]21C`, the IC50 in data set [1], in data set [2], in [3], in data set [4] and in [5] was more than 30 µM in each case.
On to `CC(=O)O[C@H]1CC[C@H](C)[C@@H]2[C@@H]1C=C(C)[C@H]1/C(C)=C/CC/C(C)=C/[C@]3(C)C=C(C)[C@H](C)C[C@]34OC(=O)C(=C4O)C(=O)[C@@]21C`, for which the half-inhibitory concentration (IC50) at 48 h in data set [6] and in data set [7] was more than 30 µM throughout. Besides, the IC50 in data set [8] is more than 30 µM; in [9], more than 30 µM; in data set [10], more than 30 µM; in data set [1], 1.2 µM; in [2], 3.7 µM; in data set [3] it was 1.1 µM. Further, the values for the 50% inhibitory concentration (IC50) in data set [4] and in [5] were 0.9 µM and 10 µM, respectively.
Consider `COc1cccc(OC)c1C(=O)N[C@@H]1C(=O)N2[C@@H]1SC(C)(C)[C@@H]2C(=O)O` [METHICILLIN], for which the IC50 in data set [1] was less than 10 µM; in data set [3] it was more than 10 µM; in [4], more than 10 µM.
Regarding `CN[C@H](CC(C)C)C(=O)N[C@H]1C(=O)N[C@@H](CC(N)=O)C(=O)N[C@H]2C(=O)N[C@H]3C(=O)N[C@H](C(=O)N[C@H](C(=O)O)c4cc(O)cc(O)c4-c4cc3ccc4O)[C@H](O)c3ccc(c(Cl)c3)Oc3cc2cc(c3O[C@@H]2O[C@H](CO)[C@@H](O)[C@H](O)[C@H]2O[C@H]2C[C@](C)(N)[C@H](O)[C@H](C)O2)Oc2ccc(cc2Cl)[C@H]1O` [VANCOMYCIN], the IC50 in [2] is less than 10 µM; in data set [5], more than 10 µM.
`CC(=O)O[C@H]1CC[C@H](C)[C@@H]2[C@@H]1C=C(C)[C@H]1/C(C)=C/CC/C(C)=C/[C@@H]3C=C(C)[C@H](C)C[C@]34OC(=O)C(=C4O)C(=O)[C@@]21C`: the IC50 at 48 h in [6] and in data set [7] was more than 30 µM each time. For the same compound, the IC50 was more than 30 µM in [8]; more than 30 µM in data set [9]; more than 30 µM in [10]; 0.8 µM in data set [1]; 3 µM in data set [2]; 0.3 µM in data set [3]. Moreover, the IC50 in [4] turned out to be 6.8 µM; in data set [5] it was 6.7 µM.
As to `COc1cc(C)c(C(=O)N[C@@H]2[C@@H](C)O[C@@H](O[C@H]3CC[C@H](C)[C@@H]4[C@@H]3C=C(C)[C@H]3/C(C)=C/CC/C(C)=C/[C@]5(C)C=C(C(=O)O)[C@H](C)C[C@]56OC(=O)C(=C6O)C(=O)[C@@]43C)[C@H](O)[C@]2(C)O)c(O)c1`, the IC50 at 48 h in [6] and in data set [7] was more than 30 µM in each case. In addition, the IC50 is more than 30 µM in [8]; more than 30 µM in data set [9]; more than 30 µM in data set [10]; 11.9 µM in data set [1]; 7.3 µM in [2]; 9.1 µM in [3]. For the same compound, the values for the IC50 in data set [4] and in data set [5] were 2.2 µM and 9.5 µM, respectively.
Consider `CCCCC(=O)O[C@H]1CC[C@H](C)[C@@H]2[C@@H]1C=C(C)[C@H]1/C(C)=C/CC/C(C)=C/[C@]3(C)C=C(C)[C@H](C)C[C@]34OC(=O)C(=C4O)C(=O)[C@@]21C`, for which the IC50 in [1] came out at 0.2 µM; in data set [2], 0.5 µM; in data set [3], 1.6 µM; in data set [4], 1.4 µM; in [5], 1.6 µM.
